The assay concerns the target T1, Human M4 (Homo sapiens, UniProt P08173).
T1 construct: Human or rat M4 cDNA, along with the chimeric G protein Gqi5, were transfected into Chinese hamster ovary (CHO-K1) cells; expressed in transfected cells; host or cells: CHO-K1 (Chinese hamster ovary, ATCC), stably co-expressing Gqi5
T1 sequence (P08173 1-479): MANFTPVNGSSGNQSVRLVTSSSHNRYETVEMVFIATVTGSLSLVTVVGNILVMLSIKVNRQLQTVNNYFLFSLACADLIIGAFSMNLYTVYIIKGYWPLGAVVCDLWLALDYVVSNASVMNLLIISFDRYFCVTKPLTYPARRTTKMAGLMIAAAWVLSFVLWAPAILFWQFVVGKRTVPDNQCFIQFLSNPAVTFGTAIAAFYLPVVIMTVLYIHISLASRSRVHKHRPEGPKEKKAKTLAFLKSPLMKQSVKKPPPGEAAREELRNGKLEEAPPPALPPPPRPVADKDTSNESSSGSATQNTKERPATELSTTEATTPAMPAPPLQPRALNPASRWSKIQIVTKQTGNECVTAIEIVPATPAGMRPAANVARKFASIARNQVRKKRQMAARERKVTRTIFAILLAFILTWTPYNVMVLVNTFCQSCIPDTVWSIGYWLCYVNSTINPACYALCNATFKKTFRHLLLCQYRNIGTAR
Kind of assay: mAChR M4 cell-based functional assay (calcium flux, decrease of EC80 acetylcholine response). To be noted: for remaining activity at 30 µM: % ACh maximum at 30 μM, read-out: Human M4 Emin; for IC50: M4/Gqi5/CHO-K1 cells, decrease of response to EC80 acetylcholine. Here is the method: Human or rat M4 cDNA, along with the chimeric G protein Gqi5, were transfected into Chinese hamster ovary (CHO-K1) cells purchased from the American Type Culture Collection using Lipofectamine2000. M4/Gqi5/CHO cells were grown in Ham's F-12 medium containing 10% heat-inactivated fetal bovine serum (FBS), 20 mM HEPES, 500 μg/mL G418 sulfate, and 200 μg/mL Hygromycin B.
For high throughput measurement of agonist-evoked increases in intracellular calcium, CHO-K1 cells stably expressing muscarinic receptors were plated in growth medium lacking G418 and hygromycin at 15,000 cells/20 μL/well in Greiner 384-well black-walled, tissue culture (TC)-treated, clear-bottom plates (VWR). Cells were incubated overnight at 37° C. and 5% CO2. The next day, cells were washed using an ELX 405 (BioTek) with assay buffer; the final volume was then aspirated to 20 μL. Next, 20 μL of a 2.3 μM stock of Fluo-4/acetoxymethyl ester (Invitrogen, Carlsbad, Calif.), prepared as a 2.3 mM stock in DMSO and mixed in a 1:1 ratio with 10% (w/v) Pluronic F-127 and diluted in assay buffer, was added to the wells and the cell plates were incubated for 50 min at 37° C. and 5% CO2. Dye was removed by washing with the ELX 405 and the final volume was aspirated to 20 μL. Compound master plates were formatted in a 10 point concentration-response curve (CRC) format (1:3 dilutions) in 100% DMSO with a starting concentration of 10 or 1 mM using a BRAVO liquid handler (Agilent). Test compound CRCs were then transferred to daughter plates (240 nL) using the Echo acoustic plate reformatter (Labcyte, Sunnyvale, Calif.) and then diluted into assay buffer (40 μL) to a 2×stock using a Thermo Fisher Combi (Thermo Fisher Scientific, Waltham, Mass.).
Calcium flux was measured using the Functional Drug Screening System (FDSS) 6000 or 7000 (Hamamatsu Corporation, Tokyo, Japan) as an increase in the fluorescent static ratio. Compounds were applied to cells (20 μL, 2×) using the automated system of the FDSS at 2 seconds into the protocol and the data were collected at 1 Hz. At 143 s, 10 μL of an EC20 concentration of the muscarinic receptor agonist acetylcholine was added (5×), followed by the addition of 12 μL of an EC80 concentration of acetylcholine at the 268 s time point (5×). Agonist activity was analyzed as a concentration-dependent increase in calcium mobilization upon compound addition. Positive allosteric modulator activity was analyzed as a concentration-dependent increase in the EC20 acetylcholine response. Antagonist activity was analyzed as a concentration-dependent decrease in the EC80 acetylcholine response; for the purposes of the tables herein, an IC50 (inhibitory concentration 50) was calculated as a concentration-dependent decrease of the response elicited by an EC80 concentration of acetylcholine. Concentration-response curves were generated using a four-parameter logistical equation in XLFit curve fitting software (IDBS, Bridgewater, N.J.) for Excel (Microsoft, Redmond, Wash.) or Prism (GraphPad Software, Inc., San Diego, Calif.) or the Dotmatics software platform (Dotmatics, Bishop's Stortford, UK).
Compounds were synthesized as described above. Activity (IC50 and Emin) was determined in the mAChR M4 cell-based functional assay as described above and the data are shown in Table 2.

Each structure is given as a SMILES string.

`[2H]C([2H])(C1CCOCC1)N1C[C@H]2C[C@H](Nc3nnc(-c4cc(F)ccc4Cl)cc3C(F)(F)F)C[C@H]2C1` [Example 16, (3aR,5s,6aS)-N-(6-(2-chloro-5-fluorophenyl)-4-(trifluoro-methyl)pyridazin-3-yl)-2-((tetrahydro-2H-pyran-4-yl)methyl-d2)octahydro-cyclopenta[c]pyrrol-5-amine]: the remaining activity at 30 µM was 3% and the IC50 turned out to be 9.2 nM.
Regarding `[2H]C([2H])(C1CCOCC1)N1C[C@H]2C[C@H](Nc3nnc(-c4cc(F)ccc4C)cc3C(F)(F)F)C[C@H]2C1` [Example 17, (3aR,5s,6aS)-N-(6-(5-fluoro-2-methylphenyl)-4-(trifluoro-methyl)pyridazin-3-yl)-2-((tetrahydro-2H-pyran-4-yl)methyl-d2)octahydro-cyclopenta[c]pyrrol-5-amine], the remaining activity at 30 µM is 3% and the IC50 came to 11.3 nM.
For the compound `[2H]C([2H])(C1CCOCC1)N1C[C@H]2C[C@H](Nc3nnc(-c4ccc5nn(C)cc5c4)cc3C(F)(F)F)C[C@H]2C1` [Example 18, (3aR,5s,6aS)-N-(6-(2-methyl-2H-indazol-5-yl)-4-(trifluoro-methyl)pyridazin-3-yl)-2-((tetrahydro-2H-pyran-4-yl)methyl-d2)octahydro-cyclopenta[c]pyrrol-5-amine], the remaining activity at 30 µM is 3% and the IC50 worked out at 29.8 nM.
`Cc1ccc(F)cc1-c1cc(C(F)(F)F)c(N[C@H]2C[C@@H]3CN(CC4COCCO4)C[C@@H]3C2)nn1` (stereo partly drawn) [Example 19, (3aR,5s,6aS)-2-((1,4-dioxan-2-yl)methyl)-N-(6-(5-fluoro-2-methylphenyl)-4-(trifluoromethyl)pyridazin-3-yl)octahydro-cyclopenta[c]pyrrol-5-amine]: the remaining activity at 30 µM stood at 2% and the IC50 was 4.5 nM.
Take `Cn1cc2cc(-c3cc(C(F)(F)F)c(N[C@H]4C[C@@H]5CN(CC6COCCO6)C[C@@H]5C4)nn3)ccc2n1` (stereo partly drawn) [Example 20, (3aR,5s,6aS)-2-((1,4-dioxan-2-yl)methyl)-N-(6-(2-methyl-2H-indazol-5-yl)-4-(trifluoromethyl)pyridazin-3-yl)octahydro-cyclopenta[c]pyrrol-5-amine]: the remaining activity at 30 µM is 3% and the IC50 amounted to 25.1 nM.
On to `Cc1ccc(F)cc1-c1cc(C(F)(F)F)c(N[C@H]2C[C@@H]3CN(C[C@@H]4COCCO4)C[C@@H]3C2)nn1` [Example 21, (3aR,5s,6aS)-2-(((R)-1,4-dioxan-2-yl)methyl)-N-(6-(5-fluoro-2-methylphenyl)-4-(trifluoromethyl)pyridazin-3-yl)octahydro-cyclopenta[c]pyrrol-5-amine], for which the remaining activity at 30 µM is 3% and the concentration for half-maximal inhibition (IC50) amounted to 31.2 nM.
`Cc1ccc(F)cc1-c1cc(C(F)(F)F)c(N[C@H]2C[C@@H]3CN(C[C@H]4COCCO4)C[C@@H]3C2)nn1` [Example 22, (3aR,5s,6aS)-2-(((S)-1,4-dioxan-2-yl)methyl)-N-(6-(5-fluoro-2-methylphenyl)-4-(trifluoromethyl)pyridazin-3-yl)octahydro-cyclopenta[c]pyrrol-5-amine]: the remaining activity at 30 µM is 3% and the IC50 turned out to be 2.7 nM.
With `Cc1ccc(F)cc1-c1cc(C(F)(F)F)c(N[C@H]2C[C@@H]3CN(CC4(F)CCOCC4)C[C@@H]3C2)nn1` [Example 23, (3aR,5s,6aS)-N-(6-(5-fluoro-2-methylphenyl)-4-(trifluoromethyl)pyridazin-3-yl)-2-((4-fluorotetrahydro-2H-pyran-4-yl)methyl)octahydro-cyclopenta[c]pyrrol-5-amine], the remaining activity at 30 µM is 3% and the IC50 was determined as 23.7 nM.
Turning to `Cc1ccc(F)cc1-c1cc(C(F)(F)F)c(N[C@H]2C[C@@H]3CN(C[C@@H]4CC5CCC4O5)C[C@@H]3C2)nn1` (stereo partly drawn) [Example 24, (3aR,5s,6aS)-2-(((2S)-7-oxabicyclo[2.2.1]heptan-2-yl)methyl)-N-(6-(5-fluoro-2-methylphenyl)-4-(trifluoromethyl)pyridazin-3-yl)octahydro-cyclopenta[c]pyrrol-5-amine], the remaining activity at 30 µM was 3% and the concentration for half-maximal inhibition (IC50) was 7 nM.
As for `Cc1ccc(F)cc1-c1cc(C(F)(F)F)c(N[C@H]2C[C@@H]3CN(C[C@H]4CC5CCC4O5)C[C@@H]3C2)nn1` (stereo partly drawn) [Example 25, (3aR,5s,6aS)-2-(((2R)-7-oxabicyclo[2.2.1]heptan-2-yl)methyl)-N-(6-(5-fluoro-2-methylphenyl)-4-(trifluoromethyl)pyridazin-3-yl)octahydro-cyclopenta[c]pyrrol-5-amine], the remaining activity at 30 µM came to 2% and the 50% inhibitory concentration (IC50) is 11.1 nM.
Turning to `Cn1cc2cc(-c3cc(C(F)(F)F)c(N[C@H]4C[C@@H]5CN(C[C@@H]6CC7CCC6O7)C[C@@H]5C4)nn3)ccc2n1` (stereo partly drawn) [Example 26, (3aR,5s,6aS)-2-(((2S)-7-oxabicyclo[2.2.1]heptan-2-yl)methyl)-N-(6-(2-methyl-2H-indazol-5-yl)-4-(trifluoromethyl)pyridazin-3-yl)octahydro-cyclopenta[c]pyrrol-5-amine], the remaining activity at 30 µM is 4% and the IC50 is 19.4 nM.
For the compound `Cn1cc2cc(-c3cc(C(F)(F)F)c(N[C@H]4C[C@@H]5CN(C[C@H]6CC7CCC6O7)C[C@@H]5C4)nn3)ccc2n1` (stereo partly drawn) [Example 27, (3aR,5s,6aS)-2-(((2R)-7-oxabicyclo[2.2.1]heptan-2-yl)methyl)-N-(6-(2-methyl-2H-indazol-5-yl)-4-(trifluoromethyl)pyridazin-3-yl)octahydro-cyclopenta[c]pyrrol-5-amine], the remaining activity at 30 µM was 3% and the IC50 came to 74.3 nM.
For `Cc1ccc(F)cc1-c1cc(C(F)(F)F)c(N[C@H]2C[C@@H]3CN(CC4CCCOC4)C[C@@H]3C2)nn1` (stereo partly drawn) [Example 28, (3aR,5s,6aS)-N-(6-(5-fluoro-2-methylphenyl)-4-(trifluoromethyl)pyridazin-3-yl)-2-((tetrahydro-2H-pyran-3-yl)methyl)octahydro-cyclopenta[c]pyrrol-5-amine], in that order: 4% and 9.5 nM.
Regarding `Cc1ccc(F)cc1-c1cc(C(F)(F)F)c(N[C@H]2C[C@@H]3CN(CC4COCC4C)C[C@@H]3C2)nn1` (stereo partly drawn) [Example 29, (3aR,5s,6aS)-N-(6-(5-fluoro-2-methylphenyl)-4-(trifluoromethyl)pyridazin-3-yl)-2-((4-methyltetrahydro-furan-3-yl)methyl)octahydro-cyclopenta[c]pyrrol-5-amine], the remaining activity at 30 µM turned out to be 5% and the IC50 was determined as 52.3 nM.
For `Cc1ccc(F)cc1-c1cc(C(F)(F)F)c(N[C@H]2C[C@@H]3CN(C[C@@H]4CCOC4)C[C@@H]3C2)nn1` [Example 30, (3aR,5s,6aS)-N-(6-(5-fluoro-2-methylphenyl)-4-(trifluoromethyl)pyridazin-3-yl)-2-(((S)-tetrahydrofuran-3-yl)methyl)octahydro-cyclopenta[c]pyrrol-5-amine], the remaining activity at 30 µM came to 4% and the half-maximal inhibitory concentration (IC50) was 55.6 nM.

The values are drawn from patent publication US20230183219A1, “CONDENSED SUBSTITUTED HYDROPYRROLES AS ANTAGONISTS OF THE MUSCARINIC ACETYLCHOLINE RECEPTOR M4” (Vanderbilt University, priority 2020, published 2023).
